Data on seven compounds can be found in article doi:10.1101/2025.03.14.643303, “A genome-scale drug discovery pipeline uncovers new therapeutic targets and a unique p97 allosteric binding site in Schistosoma mansoni” (bioRxiv, 2025).

Molecules are shown by their SMILES. Entries after “also recorded” stand apart in the source; their conditions may differ. Read-outs that look alike come from different tables or passages of the source.

Test [1] addresses S. mansoni p97 (Smp_018240) (Schistosoma mansoni, UniProt G4M0P7). Nature of the test: biochemical. The conditions noted are these: for IC50: read-out: S. mansoni IC50. On the procedure: E. coli BL21 (DE3) containing the desired plasmid were grown in LB medium containing […] kanamycin while shaking at 37 °C to an OD600 of 0.6–0.8. The temperature was reduced to 18°C and 0.8 mM isopropyl-beta-D-thiogalactopyranoside (IPTG) was added. The bacterial culture was harvested 16hr later by centrifugation. The resulting pellet was suspended in 60 mL lysis buffer/2L bacterial culture [20 mM Tris (pH 7.4), 300 mM NaCl, 5 mM MgCl2, 20 mM imidazole, 1% Triton X-100, 1 mg/mL lysozyme, 10% glycerol, 3 mM β-mercaptoethanol, 0.2 mM PMSF, and protease inhibitor tablet (Roche)]. […] The lysate was centrifuged at 40,000 × rpm for 35 min at 4°C. The resulting supernatant was incubated with Ni-NTA beads equilibrated to lysis buffer for 1 hr at 4°C before being loaded onto a gravity column. The bead bed was washed with wash buffer [20 mM Tris (pH 7.4), 500 mM NaCl, 5 mM MgCl2, 40 mM imidazole, 0.05% Triton X-100, 10% glycerol, 3 mM β-mercaptoethanol, 0.2 mM PMSF, 0.001 mg/mL Aprotinin, and 0.002 mg/mL Leupeptin], then eluted in the same buffer with 250 mM imidazole in wash buffer. Fractions containing p97 were concentrated using Pierce Protein Concentrators (100k MWCO) and loaded onto a gel-filtration column (Superdex 200PG) and eluted using SEC buffer [20 mM Tris (pH 7.4), 180 mM NaCl, 5 mM MgCl2, and 10% glycerol] at 0.5 mL/min flow rate on a BioRad NGC Chromatography System. Fractions corresponding to an apparent molecular weight of 500 – 600 kDa were collected and analyzed by 4–20% SDS/PAGE to evaluate purity. Concentration was determined using a BSA standard. Fractions containing purified protein were aliquoted, snap frozen in liquid nitrogen, and stored at −80 °C until use.
For manual ATP consumption assays, 1 μM p97 was incubated with 1% DMSO or inhibitor (1% DMSO final) in assay buffer [50 mM Tris (pH 7.5), 20 mM MgCl2, 1 mM EDTA, 0.5 mM tris(2-carboxyethyl)phosphine (TCEP)] for 5 minutes prior to the addition of 20 μM ATP in a 384-well plate for a total reaction volume of 10 μL, and a final concentration of 500nM enzyme and 10 μM ATP. The reaction was allowed to proceed for 50 minutes at room temperature before adding equivalent volume of Kinase-Glo Plus reagent (Promega), and a further incubation of 10 minutes in the dark.
IC50 values were calculated using GraphPad Prism.

Test [2] has as its system S. mansoni vcp/p97 (Smp_018240). Nature of the test: High-throughput screening (HTS) assay, Kinase-Glo, 10 μM single concentration. Type of test: biochemical, Schistosoma mansoni. The conditions noted are these: for Screen Inhibition: 10 μM compound, normalized to CB-5083, Fig. 4A; for inhibition of S. mansoni p97 function in the screen: high-throughput screen. From the text:
Kinase-Glo (Promega, part K1214) was purchased from Promega. Microtiter plates (384 wells) were purchased from Perkin Elmer. All chemicals included in the UTSW library were sourced from commercial sources [ChemDiv (150,000 compounds), ChemBridge (125,500), ComGenex (22,000), Prestwick Chemical, (1,100) and TimTec (500)] or UT Southwestern chemists (https://www.utsouthwestern.edu/research/core-facilities/high-throughput-screening/libraries/). For initial screening, compounds were dispensed by Echo 555 robot for a final concentration of 10 μM (0.2% DMSO). Luminescence was read by EnVision multimode plate reader (Perkin-Elmer). Assay conditions were consistent between manual and high-throughput assays [10 μM ATP, 50 mM Tris (pH 7.5), 20 mM MgCl2, 1 mM EDTA, 0.5 mM tris(2-carboxyethyl)phosphine (TCEP)]. The plates were then incubated for 50 min at room temperature before addition of Kinase-Glo reagent and further incubation in the dark for 10 minutes before reading luminescence. […] Hit compounds were validated using a dose-response curve (19.8 μM, 9.92 μM, 4.96 μM, 3.72 μM, 2.48 μM, 1,24 μM, 0.619 μM, 0.342 μM, 0.256 μM, 0.171 μM, 0.0854 μM, 0.0427 μM, and 0 μM) in triplicate. Compounds were also subjected to a counter screen using a dose-response curve against the full-length human p97 enzyme to determine preliminary selectivity.

The target in test [3] is T1, H. sapiens p97 (P55072) (Homo sapiens, UniProt P55072).
T1 construct: 6xHis (C); made in house; host or cells: E. coli BL21 (DE3)
T1 sequence (P55072 whole entry): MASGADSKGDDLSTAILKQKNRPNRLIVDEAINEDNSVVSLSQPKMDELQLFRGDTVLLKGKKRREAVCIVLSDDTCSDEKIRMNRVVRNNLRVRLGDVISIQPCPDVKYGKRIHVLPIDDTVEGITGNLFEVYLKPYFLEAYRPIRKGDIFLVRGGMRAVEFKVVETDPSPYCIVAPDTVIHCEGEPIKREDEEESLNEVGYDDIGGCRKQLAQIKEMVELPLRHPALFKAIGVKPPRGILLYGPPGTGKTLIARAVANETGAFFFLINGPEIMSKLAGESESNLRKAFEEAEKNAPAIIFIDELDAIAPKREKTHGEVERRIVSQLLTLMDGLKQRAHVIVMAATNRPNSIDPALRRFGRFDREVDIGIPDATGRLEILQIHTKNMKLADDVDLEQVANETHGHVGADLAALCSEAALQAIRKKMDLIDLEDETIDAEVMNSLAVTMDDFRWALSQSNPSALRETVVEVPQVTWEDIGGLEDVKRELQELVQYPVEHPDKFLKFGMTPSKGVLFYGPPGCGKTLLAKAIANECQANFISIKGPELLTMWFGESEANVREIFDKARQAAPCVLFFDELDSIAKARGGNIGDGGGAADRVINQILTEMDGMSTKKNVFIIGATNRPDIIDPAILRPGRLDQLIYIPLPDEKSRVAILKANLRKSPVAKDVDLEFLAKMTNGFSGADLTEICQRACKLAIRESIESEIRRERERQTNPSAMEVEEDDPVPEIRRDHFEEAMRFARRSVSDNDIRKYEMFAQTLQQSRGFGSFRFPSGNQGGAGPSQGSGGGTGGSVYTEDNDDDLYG
As to the kind of experiment: p97 ATPase activity, ATP consumption assay (Kinase-Glo), IC50 / counter screen. Format: biochemical.

Test [4] concerns adult S. mansoni worms. Nature of the test: Treatment of adult S. mansoni worms in culture with inhibitors (attachment to tissue culture substrate, morphology; single 10 μM and dose-response EC50). Type of test: cell-based, Schistosoma mansoni. The conditions noted are these: for time to detachment of adult worms in culture / effect on adult worms: 10 μM; for EC50: Schistosoma mansoni, read-out: S. mansoni EC50; for effect on adult worms: benzoxazole propiolamide series, treated 72 hours, monitored until D5. On the procedure:
Adult S. mansoni (NMRI strain) (6–7 weeks post-infection) worms were harvested from infected female Swiss Webster mice by hepatic portal vein perfusion using 37°C DMEM (Mediatech, Manassas, VA), 8% Horse Serum, and heparin.
Roughly 5 adult worm pairs were placed in 3mL Basch medium in a 12-well culture vessel, and incubated at 37°C, 5% CO2 for the length of the experiment. Compound was administered at D0, D1, and D2, media and drug refreshed every 24 hr. Worms were then allowed to remain in culture until D5, where a final assessment of worm attachment to tissue culture substate was made by light microscopy. Observations on movement and morphology were also recorded. A negative control (0.1% DMSO) and positive control (PZQ; 10 μM in 0.1% DMSO) were included in each experiment, and each experiment was repeated in triplicate for validation. For compounds that caused complete detachment in replicate experiments, the treatment was expanded to three concentrations (10 μM, 5 μM, and 1 μM) following the same treatment schedule and controls as detailed above. […] Each titration experiment was performed in triplicate according to the treatment regimen described above, using DMSO and PZQ as appropriate controls. Morphologies and motility were assessed by light microscopy, and dose-response curves were calculated using the primary readout of parasite attachment to tissue culture substrate in GraphPad Prism. […]
[…] Values were calculated using Prism.

The subject of test [5] is HepG2 cells. As to the kind of experiment: HepG2 cytotoxicity assay (Cell Titer Glo 2.0). Format: cell-based, human. The conditions noted are these: Homo sapiens. On the procedure:
HepG2 cells (ATCC) were plated at 2500 cells/well in 50 μL/well, dispersing cells using a 25g needle to break up clumps prior to plating. Plates were incubated for 24hr at 37C, 5% CO2. Following 24hr, 50 μL media containing 0.6% DMSO was added to a set of wells on one plate. The plate and Cell Titer Glo 2.0 reagent were brought to RT. A T=0 read was taken by adding 40 μL reagent/well, rocking the plate at 100 rpm for 2 min, then reading luminescence ~10 min later. […] 50 μL 2x concentrated compound was added to wells containing cells in 50 μL 24 hr after plating. Concentrations were tested in triplicate at following values: 30, 10, 3.3, 1.1, 0.37, 0.12, and 0.04 μM. Plates were incubated for 72 hr at 37C, 5% CO2. Following equilibration to room temperature, 40 μL undiluted reagent was added to each well, the plate rocked at 100 rpm for 2 min and then read for luminescent signal ~10 min later.
Values are plotted in excel and the 50% point determined by interpolation. Values were revisualized in Prism.

Setting [6] is: Smp97, re-tested screen compounds, 100 μM-1 nM, Fig. 4A.
Where [7] appears, read: Hsp97, re-tested screen compounds, 100 μM-1 nM, Fig. 4A.
Setting [8] is: H. sapiens vs S. mansoni p97 IC50, Suppl. Fig. 11D.

S. mansoni p97 (Smp_018240), sequence (G4M0P7 entry or part of it): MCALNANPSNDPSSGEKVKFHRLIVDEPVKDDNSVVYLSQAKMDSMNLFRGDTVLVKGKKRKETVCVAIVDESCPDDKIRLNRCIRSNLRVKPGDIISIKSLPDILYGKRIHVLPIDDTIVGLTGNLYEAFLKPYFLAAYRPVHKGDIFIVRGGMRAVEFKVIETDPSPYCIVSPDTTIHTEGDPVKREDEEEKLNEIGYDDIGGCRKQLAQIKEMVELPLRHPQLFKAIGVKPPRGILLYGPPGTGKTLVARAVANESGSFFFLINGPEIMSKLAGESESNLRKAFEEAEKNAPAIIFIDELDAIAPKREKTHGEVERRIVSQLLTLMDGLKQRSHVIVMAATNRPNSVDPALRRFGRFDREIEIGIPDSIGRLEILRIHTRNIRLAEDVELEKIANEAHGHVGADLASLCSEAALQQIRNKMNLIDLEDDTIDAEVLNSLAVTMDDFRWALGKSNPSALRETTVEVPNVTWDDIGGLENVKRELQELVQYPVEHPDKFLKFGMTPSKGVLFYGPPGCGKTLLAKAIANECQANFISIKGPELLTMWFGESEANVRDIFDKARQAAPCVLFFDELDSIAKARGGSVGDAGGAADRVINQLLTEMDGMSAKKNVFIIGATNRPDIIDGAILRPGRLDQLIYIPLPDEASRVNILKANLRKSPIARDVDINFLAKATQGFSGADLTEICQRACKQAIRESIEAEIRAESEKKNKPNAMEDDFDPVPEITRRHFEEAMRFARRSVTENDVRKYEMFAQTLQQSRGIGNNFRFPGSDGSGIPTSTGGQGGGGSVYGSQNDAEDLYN

For orientation: IC50 means the point on the concentration scale where inhibition reaches its midpoint. On to `O=C(C=Cc1ccccc1)Nc1ccc2oc(-c3ccccc3)nc2c1` [Compound 135, N-(2-phenylbenzo[d]oxazol-5-yl)cinnamamide], for which the IC50 in test [1] (setting [6]) and in test [3] (setting [7]) was more than 100 µM each time. For the same compound, the “Screen Inhibition” value in test [2] amounted to 1.1%. For the same compound, the “inhibition of S. mansoni p97 function in the screen” value (from here on “inhibition … in the screen”) in test [2] is “inactive”.

The term EC50 denotes the concentration giving half of the maximal effect. In the case of `O=C(C#Cc1ccccc1)Nc1ccc2oc(-c3ccncc3)nc2c1` [Compound 242, 3-phenyl-N-(2-(pyridin-4-yl)benzo[d]oxazol-5-yl)propiolamide], the “Fold Selectivity” value in test [1] (setting [8]) worked out at 8.6. Besides, in test [1] (p97 enzyme, Suppl. Fig. 11D), the IC50 stood at 1.4 ± 0.11 µM. The “Screen Inhibition” value in test [2] stood at 47%. The compound further showed a concentration for half-maximal inhibition (IC50) in test [3] (p97 enzyme, Suppl. Fig. 11D) of 12 ± 0.31 µM. For the same compound, in test [4], the “time to detachment of adult worms in culture” value was not above 48 h, the EC50 came to 9.9 µM and the “effect on adult worms” value was “led to death in adult parasites; also recorded: ultimately leading to their death”.

Broadly, the GI50 is the concentration that inhibits growth by half. As to `O=C(C#Cc1ccccc1)Nc1ccc2oc(-c3ccccn3)nc2c1` [Compound 243, 3-phenyl-N-(2-(pyridin-2-yl)benzo[d]oxazol-5-yl)propiolamide], the “Fold Selectivity” value in test [1] worked out at 9.5. The IC50 in test [1] (Sm p97, 100 μM – 1 nM, Suppl. Fig. 9C) came to 2.1 ± 0.75 µM; in test [1] (setting [6]), 2.1 ± 0.75 µM; in test [1] (p97 enzyme, Suppl. Fig. 11D), 2.1 ± 0.75 µM; in test [1] (recombinant parasite enzyme, 100 μM-1 nM, Fig. 4D), 2.1 ± 0.75 µM; in test [5] (HepG2, 72 h), 9.6 µM; in test [5] (HepG2, read-out: HepG2 IC50), 9.6 µM. Further, the IC50 came to 20 ± 0.54 µM in test [3] (Hs p97, 100 μM – 1 nM, Suppl. Fig. 9C); 20 ± 0.54 µM in test [3] (setting [7]); 20 ± 0.54 µM in test [3] (p97 enzyme, Suppl. Fig. 11D); 20 ± 0.54 µM in test [3] (recombinant human enzyme, 100 μM-1 nM, Fig. 4D). Besides, the GI50 in test [5] (HepG2, 72 h) came to 5.6 µM; in test [5] (HepG2, read-out: HepG2 GI50), 5.6 µM. Besides, the “Screen Inhibition” value in test [2] turned out to be 46%. Also, the “time to detachment of adult worms in culture” value in test [4] is not above 48 h. Moreover, the EC50 in test [4] (adult parasites, fraction of worms attached, 72 hours of drug treatment, in culture until D5, 50 μM - 10 nM, Suppl. Fig. 9C) was 3.5 µM. Also, the “effect on adult worms” value in test [4] is recorded as “led to death in adult parasites; also recorded: ultimately leading to their death”.

For `O=C(C#Cc1ccccc1)Nc1ccc2oc(-c3cccnc3)nc2c1` [Compound 244, 3-phenyl-N-(2-(pyridin-3-yl)benzo[d]oxazol-5-yl)propiolamide], the concentration for half-maximal inhibition (IC50) in test [1] (p97 enzyme, Suppl. Fig. 11D) is more than 100 µM; in test [3] (p97 enzyme, Suppl. Fig. 11D), more than 100 µM. Besides, the “activity on the enzyme” value in test [1] (schistosome p97) was “minimal activity on the enzyme”. Besides, the “Screen Inhibition” value in test [2] was 16%. Also, the EC50 in test [4] is 25 µM. Further, the “effect on adult worms” value in test [4] is “did not have any adverse effects on worm health and survival”.

Take `O=C(C#Cc1ccccc1)Nc1ccc2oc(-c3ccccc3)nc2c1` [Compound 245, 3-phenyl-N-(2-phenylbenzo[d]oxazol-5-yl)propiolamide]: in test [1] (setting [8]), the “Fold Selectivity” value is listed as more than 30. In addition, the half-inhibitory concentration (IC50) in test [1] (p97 enzyme, Suppl. Fig. 11D) was 3.8 ± 0.19 µM; in test [3] (p97 enzyme, Suppl. Fig. 11D), more than 100 µM. Besides, in test [2], the “Screen Inhibition” value came out at 36%. Besides, the EC50 in test [4] is 12 µM. The “effect on adult worms” value in test [4] is listed as “did cause detachment, it did not lead to parasite death”.

Turning to `O=C(/C=C\c1ccccc1)Nc1ccc2oc(-c3ccccc3)nc2c1` [Compound 324, (Z)-3-phenyl-N-(2-phenylbenzo[d]oxazol-5-yl)acrylamide], in test [1] (setting [6]), the IC50 was more than 100 µM. Further, in test [2], the “Screen Inhibition” value is 1.1% and the “inhibition … in the screen” value was “inactive”. In test [3] (setting [7]), this compound showed an IC50 of more than 100 µM.

Consider `O=C(CCc1ccccc1)Nc1ccc2oc(-c3ccccn3)nc2c1` [Compound 326, 3-phenyl-N-(2-(pyridin-2-yl)benzo[d]oxazol-5-yl)propanamide], for which the 50% inhibitory concentration (IC50) in test [1] (setting [6]) and in test [3] (setting [7]) was more than 100 µM each time. Besides, the “Screen Inhibition” value in test [2] was 2.2%. Also, the “inhibition … in the screen” value in test [2] was “inactive”.
